The results in this text go back to PMC3091966 (2011).

Assay [1] concerns the target T1, human αβγ ENaC (α subunit) (Homo sapiens, UniProt P37088+P51168+P51170).
T1 sequence (P37088 1-669): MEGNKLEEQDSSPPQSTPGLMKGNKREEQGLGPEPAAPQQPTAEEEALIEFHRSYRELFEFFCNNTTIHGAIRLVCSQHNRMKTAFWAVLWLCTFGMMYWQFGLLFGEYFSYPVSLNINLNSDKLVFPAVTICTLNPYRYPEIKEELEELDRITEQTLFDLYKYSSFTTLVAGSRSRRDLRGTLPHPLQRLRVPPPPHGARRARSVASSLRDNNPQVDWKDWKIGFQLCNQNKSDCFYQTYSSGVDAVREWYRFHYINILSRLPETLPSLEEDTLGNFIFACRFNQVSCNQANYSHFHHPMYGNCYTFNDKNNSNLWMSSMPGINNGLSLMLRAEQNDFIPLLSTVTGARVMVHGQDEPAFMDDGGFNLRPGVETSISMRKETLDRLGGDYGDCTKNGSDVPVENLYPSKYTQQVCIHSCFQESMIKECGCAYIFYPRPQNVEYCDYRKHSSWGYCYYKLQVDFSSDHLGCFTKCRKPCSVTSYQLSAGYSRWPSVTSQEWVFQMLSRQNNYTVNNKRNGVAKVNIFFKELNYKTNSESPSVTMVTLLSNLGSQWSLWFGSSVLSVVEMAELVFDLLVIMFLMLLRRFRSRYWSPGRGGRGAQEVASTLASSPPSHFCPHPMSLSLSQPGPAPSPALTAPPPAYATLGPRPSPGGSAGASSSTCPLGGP
T1 sequence (P51168 1-640): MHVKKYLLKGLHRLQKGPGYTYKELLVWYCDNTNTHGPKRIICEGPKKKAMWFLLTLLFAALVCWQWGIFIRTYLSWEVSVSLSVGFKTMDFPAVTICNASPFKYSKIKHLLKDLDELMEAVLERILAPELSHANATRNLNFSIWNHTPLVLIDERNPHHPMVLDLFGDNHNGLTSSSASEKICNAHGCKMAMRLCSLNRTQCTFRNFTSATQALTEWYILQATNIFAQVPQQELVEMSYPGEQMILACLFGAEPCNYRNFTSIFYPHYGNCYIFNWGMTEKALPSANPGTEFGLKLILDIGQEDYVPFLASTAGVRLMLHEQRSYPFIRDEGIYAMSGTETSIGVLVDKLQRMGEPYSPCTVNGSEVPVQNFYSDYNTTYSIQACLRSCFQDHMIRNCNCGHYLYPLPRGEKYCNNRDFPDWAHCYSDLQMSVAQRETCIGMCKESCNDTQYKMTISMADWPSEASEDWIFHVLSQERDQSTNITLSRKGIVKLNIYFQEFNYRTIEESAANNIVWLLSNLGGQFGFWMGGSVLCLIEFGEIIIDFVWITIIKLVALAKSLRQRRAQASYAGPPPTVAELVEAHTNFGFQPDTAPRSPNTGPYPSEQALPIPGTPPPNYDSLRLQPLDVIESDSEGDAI
T1 sequence (P51170 1-649): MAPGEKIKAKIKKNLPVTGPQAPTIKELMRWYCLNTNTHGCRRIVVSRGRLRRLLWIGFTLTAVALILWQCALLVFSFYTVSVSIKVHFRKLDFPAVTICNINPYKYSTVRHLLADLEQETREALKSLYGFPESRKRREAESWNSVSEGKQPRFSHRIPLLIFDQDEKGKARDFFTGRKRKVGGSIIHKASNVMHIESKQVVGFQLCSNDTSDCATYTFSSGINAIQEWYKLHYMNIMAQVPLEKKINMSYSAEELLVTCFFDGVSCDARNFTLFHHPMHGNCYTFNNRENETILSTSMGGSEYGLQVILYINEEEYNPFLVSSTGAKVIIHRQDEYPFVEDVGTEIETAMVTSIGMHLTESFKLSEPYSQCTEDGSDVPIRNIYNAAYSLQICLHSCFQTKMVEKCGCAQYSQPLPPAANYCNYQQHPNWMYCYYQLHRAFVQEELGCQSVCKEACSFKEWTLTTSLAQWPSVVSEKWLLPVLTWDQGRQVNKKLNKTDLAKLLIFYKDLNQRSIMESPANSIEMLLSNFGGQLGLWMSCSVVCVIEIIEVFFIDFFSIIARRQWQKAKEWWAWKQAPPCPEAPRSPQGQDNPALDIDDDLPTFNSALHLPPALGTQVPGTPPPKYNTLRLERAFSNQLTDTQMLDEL
The assay can be described thus: two-electrode voltage clamp in Xenopus oocytes, external perfusion. The format is cell-based. In general terms: In two-electrode clamp one electrode senses voltage and the other passes current.

Assay [2] has as its target T1, human αβγ ENaC (α subunit). The assay can be described thus: two-electrode voltage clamp in Xenopus oocytes, block of current. Type of assay: cell-based.

For `Nc1ncnc2c1nc(Sc1ccc(Cl)cc1)n2[C@@H]1O[C@@H]2COP(=O)(O)O[C@H]2[C@H]1O` [cpt-cAMP], a half-maximal effect in assay [1] (EC50) was put at 49 ± 14 µM.

Consider `N=C(N)NC(=O)c1nc(Cl)c(N)nc1N` [amiloride], for which, in assay [2], the “two-electrode voltage clamp in Xenopus oocytes, block of current” value was “Both basal and elevated currents were sensitive to amiloride”.

A word on the EC50: it is the concentration giving half of the maximal effect.
